Measurements reported in the supplement of paper PMC10307832.

Experiments:
Test in all cases: relative viability (nuclei count vs DMSO), 5 days (fraction); higher = more cells survive
[1] = compound: Cc1ccc(Nc2nccc(N(C)c3ccc4c(C)n(C)nc4c3)n2)cc1S(N)(=O)=O [Pazopanib] + N=C(N)NC(=N)NCCc1ccccc1 [Phenformin] (partner 250 µM)
Method in brief: (§1)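 Each reported value is a median over duplicate plates. It expresses relative viability: treated-well nuclei count divided by vehicle-well nuclei count. Lung cancer cell lines in 1536-well plates were dosed by pin tool a day after seeding, alone with one drug or with a fixed anchor-drug dose plus five library-drug doses (not always all listed) in √10 steps, and nuclei were counted after 5 days.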

[2] = compound: Cc1ccc(C(=O)Nc2ccc(CN3CCN(C)CC3)c(C(F)(F)F)c2)cc1C#Cc1cnc2cccnn12 [Ponatinib] + CS(=O)(=O)N1CCN(Cc2cc3nc(-c4cccc5[nH]ncc45)nc(N4CCOCC4)c3s2)CC1 [Pictilisib] (partner 1 µM)
Method in brief: as §1

[3] = compound: Cc1ccc(C(=O)Nc2ccc(CN3CCN(C)CC3)c(C(F)(F)F)c2)cc1C#Cc1cnc2cccnn12 [Ponatinib] + CC(=O)Nc1cccc(-n2c(=O)n(C3CC3)c(=O)c3c(Nc4ccc(I)cc4F)n(C)c(=O)c(C)c32)c1 [Trametinib] (partner 0.02 µM)
Method in brief: as §1

[4] = compound: Cc1ccc(C(=O)Nc2ccc(CN3CCN(C)CC3)c(C(F)(F)F)c2)cc1C#Cc1cnc2cccnn12 [Ponatinib] + NC(=O)Nc1cc(-c2cccc(F)c2)sc1C(=O)N[C@H]1CCCNC1 [AZD7762] (partner 0.2 µM)
Method in brief: as §1

Row | Cell Line | relative viability ([1]; first compound 0.01 µM) | relative viability ([1]; first compound 0.03162 µM) | relative viability ([1]; first compound 0.1 µM) | relative viability ([1]; first compound 0.3162 µM) | relative viability ([1]; first compound 1 µM) | relative viability ([2]; first compound 0.002 µM) | relative viability ([2]; first compound 0.006325 µM) | relative viability ([2]; first compound 0.06325 µM) | relative viability ([2]; first compound 0.2 µM) | relative viability ([3]; first compound 0.002 µM) | relative viability ([3]; first compound 0.006325 µM) | relative viability ([3]; first compound 0.06325 µM) | relative viability ([3]; first compound 0.2 µM) | relative viability ([4]; first compound 0.002 µM) | relative viability ([4]; first compound 0.006325 µM) | relative viability ([4]; first compound 0.06325 µM) | relative viability ([4]; first compound 0.2 µM)
1 | H3255 | 0.298 | 0.33 | 0.365 | 0.306 | 0.367 | 0.466 | 0.478 | 0.456 | 0.447 | 0.62 | 0.655 | 0.607 | 0.554 | 0.817 | 0.858 | 1.05 | 0.95
2 | NCI-H1395 | 0.384 | 0.441 | 0.454 | 0.511 | 0.51 | – | 0.696 | 0.657 | 0.581 | 0.905 | 1.01 | 0.976 | 0.78 | 0.387 | 0.41 | 0.371 | 0.362
3 | NCI-H1437 | 0.355 | 0.312 | 0.34 | 0.303 | 0.338 | 0.445 | 0.479 | 0.495 | 0.406 | 0.413 | 0.496 | 0.741 | 0.613 | 1.02 | 1.07 | 1.17 | 1.03
4 | LU99A | 0.725 | 0.943 | 0.796 | 0.923 | 0.945 | 0.303 | 0.335 | 0.369 | 0.329 | 0.476 | 0.554 | 0.342 | 0.305 | 0.308 | 0.421 | 0.399 | 0.48
5 | HCC-827 | 0.46 | 0.466 | 0.374 | 0.426 | 0.414 | 0.952 | 1.13 | 0.899 | 0.854 | 0.526 | 0.558 | 0.558 | 0.459 | 0.185 | 0.216 | 0.182 | 0.253
